Measurements as given in patent US20140363384A1, “COMBINATION THERAPY FOR COPD” (CHIESI FARMACEUTICI S.p.A., priority 2009, published 2014).

Experiments:
[1] = Analysis of impurities/degradation products by HPLC/UV VIS; conditions: for Total impurities % Vs active ingredient: stored 3 months at 25° C./60% relative humidity
[2] = Stability of single, double and triple combination aerosol solution formulations: residual content of active ingredient in the can; format: physicochemical; conditions: for Residual % amount ± standard deviation: stored 3 months at 25° C./60% relative humidity, versus amount at time 0
Description: +25° C./60% relative humidity (accelerated storage conditions);
+30° C./65% relative humidity; and
+40° C./75% relative humidity.

[3] = triple combination FF+GLY+BDP, versus initial amount of the active ingredient
[4] = triple combination FF+GLY+BDP aerosol solution
[5] = triple combination, +5° C. to +40° C./75% RH, 1, 2 and 3 months

SMILES | Total impurities % Vs active ingredient ([1]; double combination FF + BDP) | Total impurities % Vs active ingredient [1, 3] | Residual % amount ± standard deviation ([2]; double combination FF + BDP) | Residual % amount ± standard deviation [2, 4] | can content versus time and temperature of storage [2, 5] | Total impurities % Vs active ingredient ([1]; double combination FF + Gly) | level of degradation products (HPLC/UV) ([1]; formulations comprising both formoterol and GLY) | Residual % amount ± standard deviation ([2]; double combination FF + Gly) | can content versus time and temperature of storage ([2]; double combination FF+GLY, all tested storage conditions) | can content versus time and temperature of storage ([2]; single agent GLY formulation in the presence of 1M HCl) | can content versus time and temperature of storage ([2]; single agent GLY formulation, acid omitted)
CCC(=O)OCC(=O)[C@@]1(OC(=O)CC)[C@@H](C)C[C@H]2[C@@H]3CCC4=CC(=O)C=C[C@]4(C)[C@@]3(Cl)[C@@H](O)C[C@@]21C [BDP, beclometasone dipropionate] | 0.20% | 0.21% | 98.9 ± 0.6% | 94.5 ± 0.3% | not significantly affected by time and temperature | – | – | – | – | – | –
COc1ccc(C[C@@H](C)NC[C@H](O)c2ccc(O)c(NC=O)c2)cc1.COc1ccc(C[C@@H](C)NC[C@H](O)c2ccc(O)c(NC=O)c2)cc1.O=C(O)/C=C/C(=O)O [FF, formoterol fumarate] | 0.80% | 1.1% | – | – | – | 1.3% | high levels of degradation products | – | – | – | –
C[N+]1(C)CCC(OC(=O)C(O)(c2ccccc2)C2CCCC2)C1.[Cl-] (stereo not drawn) [Gly, 3-[(cyclopentylhydroxyphenyl-acetyl)oxy]-1,1-dimethylpyrrolidinium chloride] | – | – | – | 96.4 ± 1.3% | not significantly affected by time and temperature | – | – | 96.0 ± 0.1% | remains stable under all of the tested conditions | maintain a constant content | highly dependent on time and temperature of storage
